Assay: Single ascending oral doses of CHP (Study 1001-68) and single IV dose (Study 0302-72): pharmacokinetics and safety in healthy volunteers
Type: in vivo, human
From the text: study title Safety, tolerability and pharmacokinetic profile of single ascending doses of oral cis-4-hydroxy-L-proline (CHP) in healthy volunteers Galmed study no. 1001-68-. Results FIGS. 3 and 4.
Study title: Single Dose Absolute Bioavailability (intravenous IV solution) and Safety Study of CHP in Healthy Volunteers-GALMED Study No: 0302-72. Results are in (FIGS. 5 and 6)
Six healthy volunteers (male, caucasian—18-45 years old) were recruited from the GCP-Galmed clinical centre. All healthy volunteers provided written informed consent prior to study participation. The study was approved by the independent Ethical Committee.
All volunteers were orally administered 2, 4, 6, 8, 10 and 12 grams of CHP with a wash out period of at least one week between doses of CHP.
The following blood and urine samples were collected for determination of the pharmacokinetics parameters of CHP and THP:
10 hours and immediately prior to administration of CHP (0 Hour), and at 0.25, 0.5, 1, 1.5, 2, 2.5, 3, 4, 5, 6, 12 and 24 hours after administration of CHP.
Urine was collected for the determination of the CHP and THP concentrations and the calculation of the elimination parameters of CHP and THP.
Six healthy volunteers (male, caucasian—18-45 years old) were recruited from the GCP-Galmed clinical centre. All healthy volunteers provided written informed consent prior to study participation. The study was approved by the independent Ethical Committee. Single doses of CHP were intravenously administered: 2.0 g, 4.0 g (2×2.0 g). Each dose level was administered to all healthy volunteers. There was a washout period of at least one week between doses.
The following safety parameters were determined at the pre- and post-study examinations: • 1. Vital signs • 2. Clinical laboratory: Blood chemistry, Haematology, Coagulation, Urinalysis • 3. Adverse events (Signs and Symptoms) have been recorded in each of the two treatment periods.

[1] = healthy subjects, after oral administration of CHP 2 g-12 g

O=C(O)[C@@H]1C[C@H](O)CN1 [CHP, cis-4-hydroxy-L-proline]
Vital parameters, clinical chemistry, haematological and urinalysis findings (CHP administered orally and intravenously to healthy volunteers (Examples 3 and 4)): all within the normal range
Oral clearance (average) [1]: 199.72 mL/min
Volume of distribution (average) [1]: 63.94 L
Correlation of Cmax and AUC(0-∞) with dose (healthy subjects, oral CHP doses 2 g-12 g): dose linearity
Metabolism by the liver microsomal enzyme system (human, in vivo): isomerisation, hydroxylation and demethylation
half-life (male, human, in vivo, healthy subjects, after oral administration of CHP 2 g-12 g, read-out: Elimination half life (average) (converted)): 3.7 h
MRT (male, human, in vivo, healthy subjects, after oral administration of CHP 2 g-12 g, read-out: Mean residence time (MRT) (average)): 4.15 h
Tmax (male, human, healthy subjects, plasma, after oral administration of CHP 2 g-12 g): 1.24 h

From US10328051B2, “Proline or proline derivatives for the treatment of dementia” (priority 2014, dated 2019)
